From US20070128217A1 (priority 2003, published 2007)

What was measured:
[1] = tested on: antibodies in sera from SARS patients (sera 1a, 1b, 2, 6, 37, 62, London, SARS-yellow, SARS-green); type: binding, human; parameters: Binding of serum 6 to linear peptides of protein X1 of SARS-CoV Urbani / Binding of serum 37 to linear peptides of protein X1 of SARS-CoV Urbani / Binding of serum 6 to looped/cyclic peptide (PEPSCAN-ELISA) / Binding of serum 37 to looped/cyclic peptide (PEPSCAN-ELISA) / Binding of serum 37 to looped/cyclic peptides of protein X1 of SARS-CoV Urbani / Binding of serum 6 to linear peptides of protein X2 / Binding of serum 37 to linear peptides of protein X2 / Binding of serum 37 to looped/cyclic peptides of protein X2 of SARS-CoV Urbani / Binding of serum 6 to linear peptides of protein M of SARS-CoV Urbani / Binding of serum 37 to linear peptides of protein M of SARS-CoV Urbani / Binding of serum 6 to looped/cyclic peptides of protein M of SARS-CoV Urbani / Binding of serum 37 to looped/cyclic peptides of protein M of SARS-CoV Urbani / Binding of serum 6 to linear peptides of protein X3 of SARS-CoV Urbani / Binding of serum 37 to linear peptides of protein X3 of SARS-CoV Urbani / Binding of serum 37 to looped/cyclic peptides of protein X3 of SARS-CoV Urbani / Binding of serum 6 to linear peptides of protein X4 of SARS-CoV Urbani / Binding of serum 37 to linear peptides of protein X4 of SARS-CoV Urbani / Binding of serum 37 to looped/cyclic peptides of protein X4 of SARS-CoV Urbani / Binding of serum 6 to linear peptides of protein X5 of SARS-CoV Urbani / Binding of serum 37 to linear peptides of protein X5 of SARS-CoV Urbani / Binding of serum 37 to looped/cyclic peptides of protein X5 of SARS-CoV Urbani / Binding of serum 6 to linear peptides of protein N of SARS-CoV Urbani / Binding of serum 37 to linear peptides of protein N of SARS-CoV Urbani / Binding of serum 6 to linear peptide (PEPSCAN-ELISA) / Binding of serum 1a to looped/cyclic peptides of protein N of SARS-CoV Urbani / Binding of serum 1b to looped/cyclic peptides of protein N of SARS-CoV Urbani / Binding of serum 2 to looped/cyclic peptides of protein N of SARS-CoV Urbani / Binding of serum 6 to looped/cyclic peptides of protein N of SARS-CoV Urbani / Binding of serum 37 to looped/cyclic peptides of protein N of SARS-CoV Urbani / Binding of serum 62 to looped/cyclic peptides of protein N of SARS-CoV Urbani / Binding of serum London to looped/cyclic peptides of protein N of SARS-CoV Urbani / Binding of serum SARS-green to looped/cyclic peptides of protein N of SARS-CoV Urbani: unit not given here
[2] = tested on: control sera (pooled serum of ten healthy LUMC hospital workers; commercial negative donor pooled serum from the Dutch bloodbank); type: binding, human; parameters: Binding of Control serum LUMC to linear peptides / Binding of Control serum Blood-bank to linear peptides / Binding of Control serum LUMC to looped peptides / Binding of Control Serum Blood-Bank to Looped peptides / Binding of Control serum LUMC to linear peptides of the protein M of SARS-CoV Urbani / Binding of Control serum Blood-bank to linear peptides of the protein M of SARS-CoV Urbani / Binding of Control serum LUMC to looped peptides of the protein M of SARS-CoV Urbani / Binding of Control Serum Blood-Bank to Looped peptides of the protein M of SARS-CoV Urbani: unit not given here
[3] = tested on: rabbit serum obtained by immunizing a rabbit with the SARS-CoV strain Frankfurt 1; type: binding; parameters: Binding of a rabbit serum to linear peptides / Binding of a rabbit serum to looped peptides / Rabbit serum linear peptides / Rabbit serum looped peptides / Binding of a rabbit serum to linear peptides of protein N of SARS-CoV Urbani (Rabbit serum linear peptides) / Binding of a rabbit serum to looped/cyclic peptides of protein N of SARS-CoV Urbani (Rabbit serum looped peptides): unit not given here
[4] = tested on: recombinant human anti-SARS-CoV antibody 03-018; type: binding; parameters: Binding of antibody 03-018 to linear peptides of the N protein of SARS-CoV Urbani / Binding of antibody 03-018 to looped/cyclic peptides of the N protein of SARS-CoV Urbani: unit not given here

Sequence | Binding of serum 1a to linear peptides of protein N of SARS-CoV Urbani [1] | Binding of serum 1b to linear peptides of protein N of SARS-CoV Urbani [1] | Binding of serum 2 to linear peptides of protein N of SARS-CoV Urbani [1] | Binding of serum 6 to linear peptides of protein N of SARS-CoV Urbani [1] | Binding of serum 37 to linear peptides of protein N of SARS-CoV Urbani [1] | Binding of serum 62 to linear peptides of protein N of SARS-CoV Urbani [1] | Binding of serum London to linear peptides of protein N of SARS-CoV Urbani [1] | Binding of a rabbit serum to linear peptides of protein N of SARS-CoV Urbani (Rabbit serum linear peptides) [3] | Binding of a rabbit serum to looped/cyclic peptides of protein N of SARS-CoV Urbani (Rabbit serum looped peptides) [3] | Binding of antibody 03-018 to linear peptides of the N protein of SARS-CoV Urbani [4] | Binding of antibody 03-018 to looped/cyclic peptides of the N protein of SARS-CoV Urbani [4] | Binding of serum 1a to looped/cyclic peptides of protein N of SARS-CoV Urbani [1] | Binding of serum 1b to looped/cyclic peptides of protein N of SARS-CoV Urbani [1] | Binding of serum 2 to looped/cyclic peptides of protein N of SARS-CoV Urbani [1] | Binding of serum 6 to looped/cyclic peptides of protein N of SARS-CoV Urbani [1] | Binding of serum 37 to looped/cyclic peptides of protein N of SARS-CoV Urbani [1] | Binding of serum 62 to looped/cyclic peptides of protein N of SARS-CoV Urbani [1] | Binding of serum London to looped/cyclic peptides of protein N of SARS-CoV Urbani [1] | Binding of serum SARS-green to looped/cyclic peptides of protein N of SARS-CoV Urbani [1] | Binding of serum SARS-yellow to looped/cyclic peptides of protein N of SARS-CoV Urbani [1] | further results
PLPQRQKKQPTVTLL | 0.2 | 0.1 | 0.2 | 0.2 | 0.5 | 0.6 | 1.0 | 0.1 | 0.7 | 0.1 | 0.3 | – | – | – | – | – | – | – | – | – | Binding of serum SARS-green to linear peptides of protein N of SARS-CoV Urbani [1]: 0.2; Binding of serum SARS-yellow to linear peptides of protein N of SARS-CoV Urbani [1]: 1.0; Recognition of the peptide by sera of SARS-CoV infected individuals, and form (linear, looped/cyclic) in which it is recognized [1]: recognized in looped/cyclic form; Control Serum Blood-Bank Looped peptides [2]: 1.1; Control serum Blood-bank linear peptides [2]: 0.7; Control serum LUMC linear peptides [2]: 0.5; Control serum LUMC looped peptides [2]: 1.1
TVTLLPAADMDDFSR | 0.2 | 0.1 | 0.1 | 0.2 | 0.7 | 0.5 | 0.5 | 0.1 | 0.3 | 0.1 | 0.2 | 0.3 | 0.2 | 0.2 | 0.0 | 0.4 | 0.1 | 0.2 | 0.5 | 0.2 | Binding of serum SARS-green to linear peptides of protein N of SARS-CoV Urbani [1]: 0.3; Binding of serum SARS-yellow to linear peptides of protein N of SARS-CoV Urbani [1]: 0.5; Control Serum Blood-Bank Looped peptides [2]: 0.3; Control serum Blood-bank linear peptides [2]: 0.6; Control serum LUMC linear peptides [2]: 0.6; Control serum LUMC looped peptides [2]: 0.3
ASKKPRQKRTATKQY | – | – | – | – | – | – | – | 0.2 | 0.4 | 0.1 | 0.2 | 0.3 | 0.1 | 0.3 | 0.2 | 0.5 | 0.5 | 0.4 | 0.1 | 0.2 | Binding of serum 1a to linear peptide (PEPSCAN-ELISA) [1]: 0.2; Binding of serum 1b to linear peptide (PEPSCAN-ELISA) [1]: 0.1; Binding of serum 2 to linear peptide (PEPSCAN-ELISA) [1]: 0.3; Binding of serum 6 to linear peptide (PEPSCAN-ELISA) [1]: 0.2; Binding of serum 37 to linear peptide (PEPSCAN-ELISA) [1]: 0.7; Binding of serum 62 to linear peptide (PEPSCAN-ELISA) [1]: 0.6; Binding of serum London to linear peptide (PEPSCAN-ELISA) [1]: 0.5; Binding of serum SARS-green to linear peptide (PEPSCAN-ELISA) [1]: 0.3; Binding of serum SARS-yellow to linear peptide (PEPSCAN-ELISA) [1]: 0.5; Binding of Control Serum Blood-Bank to Looped peptides [2]: 0.6; Binding of Control serum Blood-bank to linear peptides [2]: 0.7; Binding of Control serum LUMC to linear peptides [2]: 0.6; Binding of Control serum LUMC to looped peptides [2]: 0.5
SSRGNSPARMASGGG | – | – | – | – | – | – | – | 0.2 | 0.0 | 0.1 | 0.2 | 0.4 | 0.2 | 0.5 | 0.4 | 0.4 | 0.5 | 0.8 | 0.6 | 0.5 | Binding of serum 1a to linear peptide (PEPSCAN-ELISA) [1]: 0.4; Binding of serum 1b to linear peptide (PEPSCAN-ELISA) [1]: 0.3; Binding of serum 2 to linear peptide (PEPSCAN-ELISA) [1]: 0.2; Binding of serum 6 to linear peptide (PEPSCAN-ELISA) [1]: 0.2; Binding of serum 37 to linear peptide (PEPSCAN-ELISA) [1]: 0.5; Binding of serum 62 to linear peptide (PEPSCAN-ELISA) [1]: 0.6; Binding of serum London to linear peptide (PEPSCAN-ELISA) [1]: 0.5; Binding of serum SARS-green to linear peptide (PEPSCAN-ELISA) [1]: 1.0; Binding of serum SARS-yellow to linear peptide (PEPSCAN-ELISA) [1]: 0.7; Binding of Control Serum Blood-Bank to Looped peptides [2]: 0.8; Binding of Control serum Blood-bank to linear peptides [2]: 0.8; Binding of Control serum LUMC to linear peptides [2]: 0.9; Binding of Control serum LUMC to looped peptides [2]: 0.9
FKDNVILLNKHIDAY | 0.2 | 0.1 | 0.2 | 0.2 | 0.6 | 0.6 | 0.5 | 0.1 | 0.5 | 0.1 | 0.2 | 0.5 | 0.3 | 0.5 | 0.3 | 0.8 | 0.8 | 0.5 | 0.2 | 0.5 | Binding of serum SARS-green to linear peptides of protein N of SARS-CoV Urbani [1]: 0.2; Binding of serum SARS-yellow to linear peptides of protein N of SARS-CoV Urbani [1]: 0.7; Control Serum Blood-Bank Looped peptides [2]: 0.8; Control serum Blood-bank linear peptides [2]: 0.6; Control serum LUMC linear peptides [2]: 0.5; Control serum LUMC looped peptides [2]: 0.8
